One test has as its system SK-MEL-3 (melanoma). The test is described as follows: Cell proliferation measurement (Cell Titer Glo), SK-MEL-3. The conditions noted are these: Homo sapiens, SK-MEL3, SK-MEL-3 cells, 72 h treatment, read-out: Anti-proliferation IC50 SK-MEL-3 (melanoma). The class given is cell-based. The essentials: (§1)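 Cells (1000/well; 500 for HeLa) plated overnight at 37 °C, then exposed to a ≥10-point compound dilution series for 72 h at 37 °C, DMSO 0.3% final as vehicle. Viability read by CellTiter-Glo luminescence; IC50 from 4-parameter fit against untreated wells.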
(ATP-based viability assays read luminescence as a measure of living cells.)

A further test concerns IGR-37 (melanoma). The test is described as follows: Cell proliferation measurement (Cell Titer Glo), IGR-37. The class given is cell-based. The conditions noted are these: Homo sapiens, IGR-37 cells, 72 h treatment, read-out: Anti-proliferation IC50 IGR-37 (melanoma). On the procedure: The antiproliferative activity of the compounds of the general formula (I) was examined in vitro in human cancer cells. For this purpose, 1000 cells (or 500 HeLa cells) were plated in 384-well plates with appropriate growth medium and incubated at 37° C. overnight. After 24 h, the cells on the test plate were treated with the compounds of the general formula (I) as and incubated at 37° C. for 72 h. The compounds were added to the cells by means of an HP D300 digital dispenser in a 10 (or more)-step dilution series. As control, the cells were treated with vehicle (DMSO at 0.3% final concentration). After 72 h, the cells were treated with 20 μl/well of 50% CTG solution in PBS (Promega Cell Titer Glo (catalogue #G755B and G756B)) and incubated at room temperature for 10 min, and luminescence was measured by means of a VICTOR V (Perkin Elmer), in order to determine cell viability at the end of treatment. The percentage effect on cell growth and the IC50 derived therefrom were determined for each test substance using the values from untreated wells (=percent viability). The IC50 values were calculated using a 4-parameter fit.

The next test deals with T1, human full length PDE3B (Homo sapiens, UniProt Q13370).
T1 construct: Sf9 cells overexpressing human full length PDE3B; purchased SB Drug Discovery, UK; host or cells: Sf9 cells (cell extract)
T1 sequence (Q13370 whole entry): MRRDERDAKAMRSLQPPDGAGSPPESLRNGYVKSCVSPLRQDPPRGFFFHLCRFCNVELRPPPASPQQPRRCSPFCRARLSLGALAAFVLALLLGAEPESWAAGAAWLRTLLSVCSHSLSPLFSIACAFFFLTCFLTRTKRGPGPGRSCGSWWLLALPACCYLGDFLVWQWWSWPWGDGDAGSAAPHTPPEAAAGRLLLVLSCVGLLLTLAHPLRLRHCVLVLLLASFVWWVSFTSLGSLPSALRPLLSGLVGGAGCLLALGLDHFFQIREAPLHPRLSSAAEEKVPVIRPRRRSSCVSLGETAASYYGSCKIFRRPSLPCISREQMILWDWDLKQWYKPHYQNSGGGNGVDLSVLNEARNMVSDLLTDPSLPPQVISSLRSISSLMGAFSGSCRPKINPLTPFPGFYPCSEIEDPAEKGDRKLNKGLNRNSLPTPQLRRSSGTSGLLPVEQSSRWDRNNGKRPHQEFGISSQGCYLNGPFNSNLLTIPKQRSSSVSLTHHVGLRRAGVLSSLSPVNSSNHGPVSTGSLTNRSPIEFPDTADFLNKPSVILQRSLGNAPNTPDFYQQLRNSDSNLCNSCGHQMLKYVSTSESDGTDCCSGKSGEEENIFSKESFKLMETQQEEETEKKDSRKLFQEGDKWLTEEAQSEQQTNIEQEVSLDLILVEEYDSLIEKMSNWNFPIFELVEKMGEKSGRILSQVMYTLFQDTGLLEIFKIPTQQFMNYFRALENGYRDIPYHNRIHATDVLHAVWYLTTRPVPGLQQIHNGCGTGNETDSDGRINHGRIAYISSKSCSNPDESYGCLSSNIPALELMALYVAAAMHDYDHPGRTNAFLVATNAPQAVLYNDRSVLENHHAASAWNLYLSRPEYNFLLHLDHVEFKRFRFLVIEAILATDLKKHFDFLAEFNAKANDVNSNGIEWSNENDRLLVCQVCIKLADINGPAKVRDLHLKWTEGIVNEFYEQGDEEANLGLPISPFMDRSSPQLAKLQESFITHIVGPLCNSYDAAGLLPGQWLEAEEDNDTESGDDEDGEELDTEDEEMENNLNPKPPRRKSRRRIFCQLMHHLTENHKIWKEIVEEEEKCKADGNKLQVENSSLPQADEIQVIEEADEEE
The test is described as follows: PDE3B enzyme inhibition (3H-cAMP Scintillation Proximity Assay). The conditions noted are these: PDE3B cell extract from Sf9 cells, 60 min room temperature; read-out: Target IC50 PDE3B IC50. The class given is biochemical. The essentials: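 SPA with Sf9 cell extract overexpressing human full-length PDE3B, diluted for linear kinetics and <70% substrate turnover, in 50 mM Tris/HCl pH 7.5, 8.3 mM MgCl2, 1.7 mM EDTA, 0.2% BSA. [8-3H]cAMP substrate, 60 min at room temperature, stopped with yttrium SPA beads. IC50 from sigmoidal fit of % activity vs log concentration.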
In general terms: Scintillation proximity formats need no separation of bound from free tracer.

The next test concerns the target T2, human full length PDE3A (Homo sapiens, UniProt Q14432).
T2 construct: Sf9 cells overexpressing human full length PDE3A; purchased SB Drug Discovery, UK; host or cells: Sf9 cells (cell extract)
The test is described as follows: PDE3A enzyme inhibition (3H-cAMP Scintillation Proximity Assay). The format is biochemical. As to conditions: PDE3A cell extract from Sf9 cells, 60 min room temperature; read-out: Target IC50 PDE3A IC50. The essentials:
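Sf9 cell extract overexpressing human full-length PDE3A, diluted for linear kinetics (<70% substrate used), in 50 mM Tris/HCl pH 7.5, 8.3 mM MgCl2, 1.7 mM EDTA, 0.2% BSA. [8-3H]cAMP substrate, 60 min at room temperature, yttrium SPA bead read-out; IC50 from sigmoidal curves of % activity.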

Test [1] concerns HeLa cells (cervical cancer). The test is described as follows: Cell proliferation measurement (Cell Titer Glo), HeLa. The class given is cell-based. As to conditions: Homo sapiens, 72 h treatment, read-out: Anti-proliferation IC50 HeLa (Cervical cancer). The method in brief:
as §1

pIC50: −log10 of the molar value. Where only a bound is given, the exact number is not on record here.

T2 sequence (Q14432 whole entry): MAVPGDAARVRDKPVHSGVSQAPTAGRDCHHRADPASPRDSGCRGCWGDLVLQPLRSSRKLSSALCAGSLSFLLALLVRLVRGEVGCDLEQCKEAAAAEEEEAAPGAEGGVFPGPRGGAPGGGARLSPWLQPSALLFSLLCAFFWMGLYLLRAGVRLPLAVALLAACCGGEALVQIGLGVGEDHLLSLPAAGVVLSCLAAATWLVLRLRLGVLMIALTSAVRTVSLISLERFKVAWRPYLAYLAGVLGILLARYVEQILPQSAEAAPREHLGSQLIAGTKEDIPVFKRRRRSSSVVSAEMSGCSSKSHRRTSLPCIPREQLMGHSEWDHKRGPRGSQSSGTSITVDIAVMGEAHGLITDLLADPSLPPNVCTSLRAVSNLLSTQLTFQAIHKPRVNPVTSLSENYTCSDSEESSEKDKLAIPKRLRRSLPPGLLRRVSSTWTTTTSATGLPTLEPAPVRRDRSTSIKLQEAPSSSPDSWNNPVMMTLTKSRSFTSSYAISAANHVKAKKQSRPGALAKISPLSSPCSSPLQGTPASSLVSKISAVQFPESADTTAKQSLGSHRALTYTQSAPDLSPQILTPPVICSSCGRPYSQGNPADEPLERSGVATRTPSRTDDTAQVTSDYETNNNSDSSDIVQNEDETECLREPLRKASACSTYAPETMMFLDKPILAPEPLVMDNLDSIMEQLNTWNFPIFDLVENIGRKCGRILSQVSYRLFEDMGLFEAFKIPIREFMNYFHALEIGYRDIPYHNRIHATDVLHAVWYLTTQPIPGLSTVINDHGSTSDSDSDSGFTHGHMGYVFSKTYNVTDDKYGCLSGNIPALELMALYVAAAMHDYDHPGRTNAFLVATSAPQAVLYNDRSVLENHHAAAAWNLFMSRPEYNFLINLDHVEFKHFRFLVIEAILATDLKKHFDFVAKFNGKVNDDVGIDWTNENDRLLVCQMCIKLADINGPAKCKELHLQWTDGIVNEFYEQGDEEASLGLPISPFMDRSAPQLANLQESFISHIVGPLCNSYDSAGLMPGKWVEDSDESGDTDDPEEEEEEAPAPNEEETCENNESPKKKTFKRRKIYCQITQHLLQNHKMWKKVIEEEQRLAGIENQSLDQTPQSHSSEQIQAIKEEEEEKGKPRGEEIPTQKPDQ

For `O=C1CCC(c2ccc(NCC(O)C(F)(F)F)c(C(F)(F)F)c2)=NN1` (racemic) [Example 130, 6-[4-{[3,3,3-trifluoro-2-hydroxypropyl]amino}-3-(trifluoromethyl)phenyl]-4,5-dihydropyridazin-3(2H)-one (racemic)], the pIC50 in the test on SK-MEL-3 (melanoma) is 8.06; in the test with IGR-37 (melanoma) it was 8.04; on human full length PDE3B, 7.07; on human full length PDE3A, 7.05; in test [1], 8.36.

Take `O=C1CCC(c2ccc(N3CCC(F)(F)C3)c(C(F)(F)F)c2)=NN1` [Example 22, 6-[4-(3,3-Difluoropyrrolidin-1-yl)-3-(trifluoromethyl)phenyl]-4,5-dihydropyridazin-3(2H)-one]: the pIC50 in the test with SK-MEL-3 (melanoma) is 6.14; with IGR-37 (melanoma), 8.05; at human full length PDE3B it was 6.83; at human full length PDE3A, 6.80; in test [1] it was 8.28.

Turning to `Cc1ccccc1-c1ccc(C2=NNC(=O)CC2)cc1C` [Example 116, 6-(2,2′-dimethyl[1,1′-biphenyl]-4-yl)-4,5-dihydropyridazin-3(2H)-one], the pIC50 in the test on SK-MEL-3 (melanoma) was 7.37; at human full length PDE3B, 6.77; on human full length PDE3A, 6.66; in test [1], 8.08.

For the molecule `CCc1ccccc1-c1ccc(C2=NNC(=O)CC2)cc1C` [Example 117, 6-(2′-ethyl-2-methyl[1,1′-biphenyl]-4-yl)-4,5-dihydropyridazin-3(2H)-one], the pIC50 with SK-MEL-3 (melanoma) is less than 7.00; on human full length PDE3B, 6.36; at human full length PDE3A, 6.27; in test [1], 7.29.

For `COc1ccc(-c2ccc(C3=NNC(=O)CC3)cc2C)cn1` [Example 118, 6-[4-(6-methoxypyridin-3-yl)-3-methylphenyl]-4,5-dihydropyridazin-3(2H)-one], the pIC50 was less than 7.00 in the test on SK-MEL-3 (melanoma), 7.05 at human full length PDE3B, 7.12 on human full length PDE3A and 7.26 in test [1].

As to `Cc1cc(-c2ccc(C3=NNC(=O)CC3)cc2C)ccc1F` [Example 119, 6-(4′-fluoro-2,3′-dimethyl[1,1′-biphenyl]-4-yl)-4,5-dihydropyridazin-3(2H)-one], the pIC50 in the test with SK-MEL-3 (melanoma) was less than 7.00; at human full length PDE3B, 6.54; on human full length PDE3A, 6.54; in test [1], 7.18.

As for `Cc1cccc(-c2ccc(C3=NNC(=O)CC3)cc2C)c1` [Example 120, 6-(2,3′-dimethyl[1,1′-biphenyl]-4-yl)-4,5-dihydropyridazin-3(2H)-one], the pIC50 in the test with SK-MEL-3 (melanoma) was less than 7.00; on human full length PDE3B, 6.74; at human full length PDE3A, 6.70; in test [1], 7.34.

For `Cc1ccc(-c2ccc(C3=NNC(=O)CC3)cc2C)cc1` [Example 121, 6-(2,4′-dimethyl[1,1′-biphenyl]-4-yl)-4,5-dihydropyridazin-3(2H)-one], the pIC50 in the test on SK-MEL-3 (melanoma) is 7.47; on human full length PDE3B, 6.64; on human full length PDE3A, 6.64; in test [1], 8.15.

As for `Cc1cc(C2=NNC(=O)CC2)ccc1-c1ccc(Cl)cc1` [Example 122, 6-(4′-chloro-2-methyl[1,1′-biphenyl]-4-yl)-4,5-dihydropyridazin-3(2H)-one], the pIC50 in the test with SK-MEL-3 (melanoma) is 8.00; on human full length PDE3B, 6.70; at human full length PDE3A, 6.55; in test [1], 8.57.

Regarding `O=C1CCC(c2ccc(N3CCOCC3)cc2)=NN1` [Example 123, 6-[4-(morpholin-4-yl)phenyl]-4,5-dihydropyridazin-3(2H)-one], the pIC50 was less than 7.00 in the test with SK-MEL-3 (melanoma), 6.56 with IGR-37 (melanoma), less than 6.00 on human full length PDE3B and 7.10 in test [1].

As to `O=C1CCC(c2ccc(N3CCOCC3)c(C(F)(F)F)c2)=NN1` [Example 126, 6-[4-(Morpholin-4-yl)-3-(trifluoromethyl)phenyl]-4,5-dihydropyridazin-3(2H)-one], the pIC50 in the test on SK-MEL-3 (melanoma) is 8.15; at human full length PDE3B, 7.02; on human full length PDE3A it was 7.23; in test [1] it was 8.28.

The record behind these values is patent US11897867B2, “6-phenyl-4,5-dihydropyridazin-3(2H)-one derivatives as PDE3A and PDE3B inhibitors for treating cancer” (Bayer Aktiengesellschaft, priority 2017, dated 2024).
